Assay results reported in patent US8952024B2, “Herbicidal pyrimidone derivatives” (E I du Pont de Nemours and Company, priority 2009, dated 2015).

Tests used:
Type in all cases: in vivo
[1] = tested on: blackgrass (Alopecurus myosuroides); assay: Test B pre-/postemergence plant response; conditions: for Blackgrass plant response rating (0 to 100 scale): 62 g ai/ha, 0 is no effect
Excerpt: (§1) Seeds of plant species selected from blackgrass (Alopecurus myosuroides), downy bromegrass (Bromus tectorum), green foxtail (Setaria viridis), Italian ryegrass (Lolium multiflorum), wheat (Triticum aestivum), wild oat (Avena fatua), deadnettle (henbit deadnettle, Lamium amplexicaule), galium (catchweed bedstraw, Galium aparine), bermudagrass (Cynodon dactylon), Surinam grass (Brachiaria decumbens), cocklebur (Xanthium strumarium), corn (Zea mays), large crabgrass (Digitaria sanguinalis), woolly cupgrass (Eriochloa villosa), giant foxtail (Setaria faberii), goosegrass (Eleusine indica), johnsongrass (Sorghum halepense), kochia (Kochia scoparia), lambsquarters (Chenopodium album), morningglory (Ipomoea coccinea), nightshade (eastern black nightshade, Solanum ptycanthum), yellow nutsedge (Cyperus esculentus), pigweed (Amaranthus retroflexus), ragweed (common ragweed, Ambrosia elatior), Russian thistle (Salsola kali), soybean (Glycine max), sunflower (common oilseed sunflower, Helianthus annuus) and velvetleaf (Abutilon theophrasti) were planted into a blend of loam soil and sand and treated preemergence with test compounds formulated in a non-phytotoxic solvent mixture which included a surfactant.
(§2) At the same time, plants selected from these crop and weed species and also winter barley (Hordeum vulgare), canarygrass (Phalaris minor), chickweed (Stellaria media) and windgrass (Apera spica-venti) were planted in pots containing Redi-Earth® planting medium (Scotts Company, 14111 Scottslawn Road, Marysville, Ohio 43041) comprising spaghnum peat moss, vermiculite, wetting agent and starter nutrients and treated with postemergence applications of some of the test chemicals formulated in the same manner. Plants ranged in height from 2 to 18 cm (1- to 4-leaf stage) for postemergence treatments.
(§3) Treated plants and controls were maintained in a greenhouse for 13 to 15 days, after which time all treated plants were visually evaluated and compared to controls. Plant response ratings, summarized in Table B, are based on a scale of 0 to 100 where 0 is no effect and 100 is complete control. A dash (-) response means no test result.

[2] = tested on: lambsquarters (Chenopodium album); assay: Test B pre-/postemergence plant response; conditions: for Lambsquarters plant response rating (0 to 100 scale): 62 g ai/ha, 0 is no effect
Excerpt: as §1, §2, §3

[3] = tested on: velvetleaf (Abutilon theophrasti); assay: Test B pre-/postemergence plant response; conditions: for Velvetleaf plant response rating (0 to 100 scale): 62 g ai/ha, 0 is no effect
Excerpt: as §1, §2, §3

[4] = tested on: cocklebur (Xanthium strumarium); assay: Test B pre-/postemergence plant response; conditions: for Cocklebur plant response rating (0 to 100 scale): 62 g ai/ha, 0 is no effect
Excerpt: as §1, §2, §3

[5] = tested on: wheat (Triticum aestivum); assay: Test B pre-/postemergence plant response; conditions: for Wheat plant response rating (0 to 100 scale): 62 g ai/ha, 0 is no effect
Excerpt: as §1, §2, §3

[6] = tested on: Surinam grass (Brachiaria decumbens); assay: Test B pre-/postemergence plant response; conditions: for Surinam Grass plant response rating (0 to 100 scale): 62 g ai/ha, 0 is no effect
Excerpt: as §1, §2, §3

wild oat (Avena fatua) = assay: Test B pre-/postemergence plant response; conditions: for Oat, Wild plant response rating (0 to 100 scale): 62 g ai/ha, 0 is no effect
Excerpt: as §1, §2, §3

kochia (Kochia scoparia) = assay: Test B pre-/postemergence plant response; conditions: for Kochia plant response rating (0 to 100 scale): 62 g ai/ha, 0 is no effect
Excerpt: as §1, §2, §3

soybean (Glycine max) = assay: Test B pre-/postemergence plant response; conditions: for Soybean plant response rating (0 to 100 scale): 62 g ai/ha, 0 is no effect
Excerpt: as §1, §2, §3

[7] = tested on: pigweed (Amaranthus retroflexus); assay: Test B pre-/postemergence plant response; conditions: for Pigweed plant response rating (0 to 100 scale): 62 g ai/ha, 0 is no effect
Excerpt: as §1, §2, §3

[8] = tested on: windgrass (Apera spica-venti); assay: Test B postemergence plant response; conditions: for Windgrass plant response rating (0 to 100 scale): 62 g ai/ha, 0 is no effect
Outline: (§4)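 Plants grown in peat/vermiculite medium were sprayed postemergence at 2–18 cm height (1- to 4-leaf stage). After 13–15 days in the greenhouse, response was rated visually against untreated controls on a 0–100 scale (0 no effect, 100 complete control).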

[9] = tested on: chickweed (Stellaria media); assay: Test B postemergence plant response; conditions: for Chickweed plant response rating (0 to 100 scale): 62 g ai/ha, 0 is no effect
Outline: as §4

[10] = tested on: canarygrass (Phalaris minor); assay: Test B postemergence plant response; conditions: for Canarygrass plant response rating (0 to 100 scale): 62 g ai/ha, 0 is no effect
Outline: as §4

[11] = 31 g ai/ha, postemergence, scale 0 to 100, 0 is no effect, 100 is complete control
[12] = postemergence, 100 is complete control, 13 to 15 days
[13] = Postemergence, 125 g ai/ha, visual rating after 13 to 15 days, scale 0 (no effect) to 100 (complete control)
[14] = Postemergence, 250 g ai/ha, scale 0 to 100 (0 no effect, 100 complete control)
[15] = Postemergence, 31 g ai/ha, 0 to 100 scale (0 no effect, 100 complete control)
[16] = Postemergence, 125 g ai/ha, scale 0 to 100 (0 no effect, 100 complete control)
[17] = Postemergence, 250 g ai/ha, scale 0 to 100 (0 no effect, 100 complete control), 13 to 15 days

CC(C)CC(=O)OC1=C(C(=O)c2cnc(-c3ccccc3)n(-c3ccccc3)c2=O)C(=O)CCC1 [Compound 83]
Plant response rating, Blackgrass [1, 11]: 0 | Blackgrass plant response rating (0 to 100 scale) [1, 12]: 0 | Plant response rating, Blackgrass [1, 13]: 0 | Plant response rating, Blackgrass [1, 14]: 0 | Plant response rating, Lambsquarters [2, 11]: 95 | Lambsquarters plant response rating (0 to 100 scale) [2, 12]: 98 | Plant response rating, Lambsquarters [2, 14]: 100 | Plant response rating, Velvetleaf [3, 11]: 85 | Velvetleaf plant response rating (0 to 100 scale) [3, 12]: 90 | Plant response rating, Velvetleaf [3, 14]: 100 | Plant response rating, Cocklebur [4, 11]: 75 | Cocklebur plant response rating (0 to 100 scale) [4, 12]: 80 | Plant response rating, Cocklebur [4, 13]: 80 | Plant response rating, Cocklebur [4, 14]: 90 | Plant response rating, Wheat [5, 11]: 0 | Wheat plant response rating (0 to 100 scale) [5, 12]: 0 | Plant response rating, Wheat [5, 14]: 0 | Plant response rating, Surinam Grass [6, 11]: 75 | Surinam Grass plant response rating (0 to 100 scale) [6, 12]: 75 | Plant response rating, Surinam Grass [6, 14]: 90 | Plant response rating, Oat, Wild (wild oat (Avena fatua); [11]): 10 | Oat, Wild plant response rating (0 to 100 scale) (wild oat (Avena fatua); [12]): 10 | Plant response rating, Oat, Wild (wild oat (Avena fatua); [14]): 10 | Plant response rating, Kochia (kochia (Kochia scoparia); [11]): 65 | Kochia plant response rating (0 to 100 scale) (kochia (Kochia scoparia); [12]): 75 | Plant response rating, Kochia (kochia (Kochia scoparia); [14]): 95 | Plant response rating, Soybean (soybean (Glycine max); [11]): 75 | Soybean plant response rating (0 to 100 scale) (soybean (Glycine max); [12]): 90 | Plant response rating, Soybean (soybean (Glycine max); [14]): 95 | Plant response rating, Pigweed [7, 11]: 80 | Pigweed plant response rating (0 to 100 scale) [7, 12]: 90 | Plant response rating, Pigweed [7, 14]: 100 | Plant response rating, Windgrass [8, 11]: 5 | Windgrass plant response rating (0 to 100 scale) [8, 12]: 10 | Plant response rating, Windgrass [8, 14]: 30 | Plant response rating, Chickweed [9, 11]: 90 | Chickweed plant response rating (0 to 100 scale) [9, 12]: 90 | Plant response rating, Chickweed [9, 13]: 98 | Plant response rating, Chickweed [9, 14]: 100 | Plant response rating, Canarygrass [10, 11]: 20 | Canarygrass plant response rating (0 to 100 scale) [10, 12]: 20 | Plant response rating, Canarygrass [10, 13]: 25 | Plant response rating, Canarygrass [10, 14]: 25

CCCCCn1c(-c2ccccc2)ncc(C(=O)C2=C(O)CCCC2=O)c1=O [Compound 89]
Plant response rating, Blackgrass [1, 11]: 10 | Blackgrass plant response rating (0 to 100 scale) [1, 12]: 15 | Plant response rating, Blackgrass [1, 13]: 20 | Plant response rating, Blackgrass [1, 14]: 30 | Plant response rating, Lambsquarters [2, 11]: 95 | Lambsquarters plant response rating (0 to 100 scale) [2, 12]: 98 | Plant response rating, Lambsquarters [2, 14]: 100 | Plant response rating, Velvetleaf [3, 11]: 90 | Velvetleaf plant response rating (0 to 100 scale) [3, 12]: 95 | Plant response rating, Velvetleaf [3, 14]: 100 | Plant response rating, Cocklebur [4, 11]: 10 | Cocklebur plant response rating (0 to 100 scale) [4, 12]: 60 | Plant response rating, Cocklebur [4, 13]: 65 | Plant response rating, Cocklebur [4, 14]: 70 | Plant response rating, Wheat [5, 11]: 0 | Wheat plant response rating (0 to 100 scale) [5, 12]: 5 | Plant response rating, Wheat [5, 14]: 10 | Plant response rating, Surinam Grass [6, 11]: 55 | Surinam Grass plant response rating (0 to 100 scale) [6, 12]: 75 | Plant response rating, Surinam Grass [6, 14]: 95 | Plant response rating, Oat, Wild (wild oat (Avena fatua); [11]): 10 | Oat, Wild plant response rating (0 to 100 scale) (wild oat (Avena fatua); [12]): 10 | Plant response rating, Oat, Wild (wild oat (Avena fatua); [14]): 50 | Plant response rating, Kochia (kochia (Kochia scoparia); [11]): 65 | Kochia plant response rating (0 to 100 scale) (kochia (Kochia scoparia); [12]): 75 | Plant response rating, Kochia (kochia (Kochia scoparia); [14]): 100 | Plant response rating, Soybean (soybean (Glycine max); [11]): 90 | Soybean plant response rating (0 to 100 scale) (soybean (Glycine max); [12]): 90 | Plant response rating, Soybean (soybean (Glycine max); [14]): 98 | Plant response rating, Pigweed [7, 11]: 80 | Pigweed plant response rating (0 to 100 scale) [7, 12]: 98 | Plant response rating, Pigweed [7, 14]: 100 | Plant response rating, Windgrass [8, 11]: 0 | Windgrass plant response rating (0 to 100 scale) [8, 12]: 5 | Plant response rating, Windgrass [8, 14]: 50 | Plant response rating, Chickweed [9, 11]: 75 | Chickweed plant response rating (0 to 100 scale) [9, 12]: 80 | Plant response rating, Chickweed [9, 13]: 98 | Plant response rating, Chickweed [9, 14]: 98 | Plant response rating, Canarygrass [10, 11]: 10 | Canarygrass plant response rating (0 to 100 scale) [10, 12]: 35 | Plant response rating, Canarygrass [10, 13]: 50 | Plant response rating, Canarygrass [10, 14]: 60

CCCn1c(-c2cccc(C(F)(F)F)c2)ncc(C(=O)C2=C(O)CCCC2=O)c1=O [Compound 155]
Blackgrass plant response rating (0 to 100 scale) [1, 12]: 35 | Plant response rating, Blackgrass [1, 15]: 10 | Plant response rating, Blackgrass [1, 16]: 60 | Plant response rating, Blackgrass [1, 17]: 65 | Lambsquarters plant response rating (0 to 100 scale) [2, 12]: 100 | Plant response rating, Lambsquarters [2, 15]: 98 | Plant response rating, Lambsquarters [2, 16]: 100 | Plant response rating, Lambsquarters [2, 17]: 100 | Velvetleaf plant response rating (0 to 100 scale) [3, 12]: 100 | Plant response rating, Velvetleaf [3, 15]: 100 | Plant response rating, Velvetleaf [3, 16]: 100 | Plant response rating, Velvetleaf [3, 17]: 100 | Cocklebur plant response rating (0 to 100 scale) [4, 12]: 55 | Plant response rating, Cocklebur [4, 15]: 15 | Plant response rating, Cocklebur [4, 16]: 98 | Plant response rating, Cocklebur [4, 17]: 100 | Wheat plant response rating (0 to 100 scale) [5, 12]: 30 | Plant response rating, Wheat [5, 15]: 15 | Plant response rating, Wheat [5, 16]: 40 | Plant response rating, Wheat [5, 17]: 70 | Surinam Grass plant response rating (0 to 100 scale) [6, 12]: 55 | Plant response rating, Surinam Grass [6, 15]: 40 | Plant response rating, Surinam Grass [6, 16]: 65 | Plant response rating, Surinam Grass [6, 17]: 75 | Oat, Wild plant response rating (0 to 100 scale) (wild oat (Avena fatua); [12]): 40 | Plant response rating, Oat, Wild (wild oat (Avena fatua); [15]): 10 | Plant response rating, Oat, Wild (wild oat (Avena fatua); [16]): 60 | Plant response rating, Oat, Wild (wild oat (Avena fatua); [17]): 70 | Kochia plant response rating (0 to 100 scale) (kochia (Kochia scoparia); [12]): 100 | Plant response rating, Kochia (kochia (Kochia scoparia); [15]): 35 | Plant response rating, Kochia (kochia (Kochia scoparia); [16]): 100 | Plant response rating, Kochia (kochia (Kochia scoparia); [17]): 100 | Soybean plant response rating (0 to 100 scale) (soybean (Glycine max); [12]): 95 | Plant response rating, Soybean (soybean (Glycine max); [15]): 95 | Plant response rating, Soybean (soybean (Glycine max); [16]): 100 | Plant response rating, Soybean (soybean (Glycine max); [17]): 100 | Pigweed plant response rating (0 to 100 scale) [7, 12]: 100 | Plant response rating, Pigweed [7, 15]: 98 | Plant response rating, Pigweed [7, 16]: 100 | Plant response rating, Pigweed [7, 17]: 100 | Windgrass plant response rating (0 to 100 scale) [8, 12]: 55 | Plant response rating, Windgrass [8, 15]: 50 | Plant response rating, Windgrass [8, 16]: 70 | Plant response rating, Windgrass [8, 17]: 85 | Chickweed plant response rating (0 to 100 scale) [9, 12]: 100 | Plant response rating, Chickweed [9, 15]: 100 | Plant response rating, Chickweed [9, 16]: 100 | Plant response rating, Chickweed [9, 17]: 100 | Canarygrass plant response rating (0 to 100 scale) [10, 12]: 35 | Plant response rating, Canarygrass [10, 15]: 10 | Plant response rating, Canarygrass [10, 16]: 50 | Plant response rating, Canarygrass [10, 17]: 65
